Results on five molecules are retold here after patent US9474790B2, “Stable, protracted GLP-1/glucagon receptor co-agonists for medical use” (Novo Nordisk A/S, priority 2013, dated 2016).

Numbered stars: 1 amine (or outer) side, 2 acyl side, 3 side chain; on linkers, the order of the positions; unused ones are H or OH. Square brackets hold non-standard residues; d marks the D form. Side chains are listed from the residue outwards. Peptide text beside a SMILES is read from it. * marks the point of attachment. C18 diacid = O=C(O)CCCCCCCCCCCCCCCCC(=O)*; γGlu = O=C(O)[C@H](CCC(=O)[*:2])N[*:1]; AEEA = NCCOCCOCC(=O)O; Aib = CC(C)(N)C(=O)O

For the test, the target named is T1, human GLP-1 receptor (Homo sapiens, UniProt P43220).
T1 construct: expressed in transfected cells; host or cells: BHK cells (parent BHKTS13), clone FCW467-12A/KZ10-1, with CRE luciferase
T1 sequence (P43220 24-463): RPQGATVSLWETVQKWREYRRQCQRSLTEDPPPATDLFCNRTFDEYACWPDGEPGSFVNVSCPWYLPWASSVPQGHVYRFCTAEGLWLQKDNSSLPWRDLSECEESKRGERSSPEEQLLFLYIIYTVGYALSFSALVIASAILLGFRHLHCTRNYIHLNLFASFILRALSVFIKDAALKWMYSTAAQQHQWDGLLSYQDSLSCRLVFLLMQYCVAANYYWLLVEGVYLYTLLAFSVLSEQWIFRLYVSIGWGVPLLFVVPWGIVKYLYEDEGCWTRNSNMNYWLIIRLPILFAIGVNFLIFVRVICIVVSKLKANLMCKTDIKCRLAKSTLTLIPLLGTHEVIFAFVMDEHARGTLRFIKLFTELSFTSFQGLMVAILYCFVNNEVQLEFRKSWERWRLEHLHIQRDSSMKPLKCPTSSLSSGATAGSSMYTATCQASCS
Description: GLP-1 receptor binding, 125I-GLP-1 displacement SPA on isolated membranes. The note with it: displacement of 125I-GLP-1 from membranes; read-out: IC50 GLP-1R. In a few lines:
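Test derivatives, serially diluted, competed with 125I-GLP-1(7-36)NH2 for the human GLP-1 receptor on BHK membranes, read by WGA-bead scintillation proximity after 2 h at 30°C, pH 7.4 HEPES/EGTA/MgCl2 buffer. Final serum albumin was either ≤0.001% or 2.0%; IC50 from non-linear fit.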
Regarding `CC(C)C[C@H](NC(=O)[C@H](Cc1ccc(O)cc1)NC(=O)[C@H](CCCCN)NC(=O)[C@H](CO)NC(=O)[C@H](CC(C)C)NC(=O)[C@H](CC(=O)O)NC(=O)[C@H](CO)NC(=O)[C@@H](NC(=O)[C@H](Cc1ccccc1)NC(=O)[C@@H](NC(=O)CNC(=O)[C@H](CCC(N)=O)NC(=O)C(C)(C)NC(=O)[C@@H](N)Cc1c[nH]cn1)[C@@H](C)O)[C@@H](C)O)C(=O)N[C@@H](CC(=O)O)C(=O)N[C@@H](CCCCNC(=O)CC[C@H](NC(=O)CC[C@H](NC(=O)COCCOCCNC(=O)COCCOCCNC(=O)CC[C@H](NC(=O)CCCCCCCCCCCCCCCCC(=O)O)C(=O)O)C(=O)O)C(=O)O)C(=O)N[C@@H](CCCNC(=N)N)C(=O)N[C@@H](CCCNC(=N)N)C(=O)N[C@@H](C)C(=O)N[C@@H](CCCNC(=N)N)C(=O)N[C@@H](CCC(=O)O)C(=O)N[C@@H](Cc1ccccc1)C(=O)N[C@H](C(=O)N[C@@H](CCC(N)=O)C(=O)N[C@@H](Cc1c[nH]c2ccccc12)C(=O)N[C@@H](CC(C)C)C(=O)N[C@@H](CC(C)C)C(=O)N[C@@H](CC(N)=O)C(=O)N[C@H](C(N)=O)[C@@H](C)O)C(C)C` [Example 10, N^ε16-[(4S)-4-carboxy-4-[[(4S)-4-carboxy-4-[[2-[2-[2-[[2-[2-[2-[[(4S)-4-carboxy-4-(17-carboxyheptadecanoylamino)butanoyl]amino]ethoxy]ethoxy]acetyl]amino]ethoxy]ethoxy]acetyl]amino]butanoyl]amino]butanoyl]-[Aib2,Leu10,Lys16,Arg20,Glu21,Leu27]-Glucagon amide] (H-H[Aib]QGTFTSDLSKYLDK([γGlu-γGlu-AEEA-AEEA-γGlu-C18 diacid])RRAREFVQWLLNT-NH2; N-terminus assumed), the IC50 turned out to be 0.5 nM. The result for `CC(C)C[C@H](NC(=O)[C@H](Cc1c[nH]c2ccccc12)NC(=O)[C@H](C)NC(=O)[C@@H](NC(=O)[C@H](Cc1ccccc1)NC(=O)[C@H](CCC(=O)O)NC(=O)[C@H](CCCNC(=N)N)NC(=O)[C@H](C)NC(=O)[C@H](CCCNC(=N)N)NC(=O)[C@H](CCCNC(=N)N)NC(=O)[C@H](CCCCNC(=O)CC[C@H](NC(=O)COCCOCCNC(=O)COCCOCCNC(=O)CC[C@H](NC(=O)CC[C@H](NC(=O)CCCCCCCCCCCCCCCCC(=O)O)C(=O)O)C(=O)O)C(=O)O)NC(=O)[C@H](CC(=O)O)NC(=O)[C@H](CC(C)C)NC(=O)[C@H](Cc1ccc(O)cc1)NC(=O)[C@H](CCCCN)NC(=O)[C@H](CO)NC(=O)[C@H](CC(C)C)NC(=O)[C@H](CC(=O)O)NC(=O)[C@H](CO)NC(=O)[C@@H](NC(=O)[C@H](Cc1ccccc1)NC(=O)[C@@H](NC(=O)CNC(=O)[C@H](CCC(N)=O)NC(=O)C(C)(C)NC(=O)[C@@H](N)Cc1c[nH]cn1)[C@@H](C)O)[C@@H](C)O)C(C)C)C(=O)N[C@@H](CC(C)C)C(=O)N[C@@H](CC(N)=O)C(=O)N[C@H](C(N)=O)[C@@H](C)O` [Example 19, N^ε29-[(4S)-4-carboxy-4-[[2-[2-[2-[[2-[2-[2-[[(4S)-4-carboxy-4-[[(4S)-4-carboxy-4-(17-carboxyheptadecanoylamino)butanoyl]amino]butanoyl]amino]ethoxy]ethoxy]acetyl]amino]ethoxy]ethoxy]acetyl]amino]butanoyl]-[Aib2,Leu10,Lys16,Arg20,Glu21,Ala24,Leu27]-Glucagon amide] (H-H[Aib]QGTFTSDLSKYLDK([γGlu-AEEA-AEEA-γGlu-γGlu-C18 diacid])RRAREFVAWLLNT-NH2; N-terminus assumed) reads 0.9 nM. The result for `CC(C)C[C@H](NC(=O)[C@H](Cc1ccc(O)cc1)NC(=O)[C@H](CCCCN)NC(=O)[C@H](CO)NC(=O)[C@H](CC(C)C)NC(=O)[C@H](CC(=O)O)NC(=O)[C@H](CO)NC(=O)[C@@H](NC(=O)[C@H](Cc1ccccc1)NC(=O)[C@@H](NC(=O)CNC(=O)[C@H](CCC(N)=O)NC(=O)C(C)(C)NC(=O)[C@@H](N)Cc1c[nH]cn1)[C@@H](C)O)[C@@H](C)O)C(=O)N[C@@H](CCC(=O)O)C(=O)N[C@@H](CO)C(=O)N[C@@H](CCCNC(=N)N)C(=O)N[C@@H](CCCNC(=N)N)C(=O)N[C@@H](C)C(=O)N[C@@H](CCCNC(=N)N)C(=O)N[C@@H](CCC(=O)O)C(=O)N[C@@H](Cc1ccccc1)C(=O)N[C@H](C(=O)N[C@@H](CCC(N)=O)C(=O)N[C@@H](Cc1c[nH]c2ccccc12)C(=O)N[C@@H](CC(C)C)C(=O)N[C@@H](CC(C)C)C(=O)N[C@@H](CCCCNC(=O)CC[C@H](NC(=O)COCCOCCNC(=O)COCCOCCNC(=O)CC[C@H](NC(=O)CC[C@H](NC(=O)CCCCCCCCCCCCCCCCC(=O)O)C(=O)O)C(=O)O)C(=O)O)C(=O)N[C@H](C(N)=O)[C@@H](C)O)C(C)C` [Example 20, N^ε29-[(4S)-4-carboxy-4-[[2-[2-[2-[[2-[2-[2-[[(4S)-4-carboxy-4-[[(4S)-4-carboxy-4-(17-carboxyheptadecanoylamino)butanoyl]amino]butanoyl]amino]ethoxy]ethoxy]acetyl]amino]ethoxy]ethoxy]acetyl]amino]butanoyl]-[Aib2,Leu10,Glu15,Arg20,Glu21,Leu27,Lys28]-Glucagon amide] (H-H[Aib]QGTFTSDLSKYLESRRAREFVQWLLK([γGlu-AEEA-AEEA-γGlu-γGlu-C18 diacid])T-NH2; N-terminus assumed) reads 0.4 nM. As to `CC(C)C[C@H](NC(=O)[C@H](CC(C)C)NC(=O)[C@H](Cc1c[nH]c2ccccc12)NC(=O)[C@H](CCC(N)=O)NC(=O)[C@@H](NC(=O)[C@H](Cc1ccccc1)NC(=O)[C@H](CCC(=O)O)NC(=O)[C@H](CCCNC(=N)N)NC(=O)[C@H](C)NC(=O)[C@H](CCCNC(=N)N)NC(=O)[C@H](CCCNC(=N)N)NC(=O)[C@H](CO)NC(=O)[C@H](CCC(=O)O)NC(=O)[C@H](CC(C)C)NC(=O)[C@H](Cc1ccc(O)cc1)NC(=O)[C@H](CCCCN)NC(=O)[C@H](CO)NC(=O)[C@H](CC(C)C)NC(=O)[C@H](CC(=O)O)NC(=O)[C@H](CO)NC(=O)[C@@H](NC(=O)[C@H](Cc1ccccc1)NC(=O)[C@@H](NC(=O)CNC(=O)[C@H](CCC(N)=O)NC(=O)C(C)(C)NC(=O)[C@@H](N)Cc1c[nH]cn1)[C@@H](C)O)[C@@H](C)O)C(C)C)C(=O)N[C@@H](CC(N)=O)C(=O)N[C@@H](CCCCNC(=O)CC[C@H](NC(=O)COCCOCCNC(=O)COCCOCCNC(=O)CC[C@H](NC(=O)CC[C@H](NC(=O)CCCCCCCCCCCCCCCCC(=O)O)C(=O)O)C(=O)O)C(=O)O)C(N)=O` [Example 21, N^ε29-[(4S)-4-carboxy-4-[[2-[2-[2-[[2-[2-[2-[[(4S)-4-carboxy-4-[[(4S)-4-carboxy-4-(17-carboxyheptadecanoylamino)butanoyl]amino]butanoyl]amino]ethoxy]ethoxy]acetyl]amino]ethoxy]ethoxy]acetyl]amino]butanoyl]-[Aib2,Leu10,Glu15,Arg20,Glu21,Leu27,Lys29]-Glucagon amide] (H-H[Aib]QGTFTSDLSKYLESRRAREFVQWLLNK([γGlu-AEEA-AEEA-γGlu-γGlu-C18 diacid])-NH2; N-terminus assumed), the IC50 amounted to 0.3 nM. For `CC(C)C[C@H](NC(=O)[C@H](Cc1ccc(O)cc1)NC(=O)[C@H](CCCCN)NC(=O)[C@H](CO)NC(=O)[C@H](CC(C)C)NC(=O)[C@H](CC(=O)O)NC(=O)[C@H](CO)NC(=O)[C@@H](NC(=O)[C@H](Cc1ccccc1)NC(=O)[C@@H](NC(=O)CNC(=O)[C@H](Cc1c[nH]cn1)NC(=O)C(C)(C)NC(=O)[C@@H](N)Cc1c[nH]cn1)[C@@H](C)O)[C@@H](C)O)C(=O)N[C@@H](CCC(=O)O)C(=O)N[C@@H](CO)C(=O)N[C@@H](CCCNC(=N)N)C(=O)N[C@@H](CCCNC(=N)N)C(=O)N[C@@H](C)C(=O)N[C@@H](CCCNC(=N)N)C(=O)N[C@@H](CCC(=O)O)C(=O)N[C@@H](Cc1ccccc1)C(=O)N[C@H](C(=O)N[C@@H](CCC(N)=O)C(=O)N[C@@H](Cc1c[nH]c2ccccc12)C(=O)N[C@@H](CC(C)C)C(=O)N[C@@H](CC(C)C)C(=O)N[C@@H](CCCCNC(=O)CC[C@H](NC(=O)COCCOCCNC(=O)COCCOCCNC(=O)CC[C@H](NC(=O)CC[C@H](NC(=O)CCCCCCCCCCCCCCCCC(=O)O)C(=O)O)C(=O)O)C(=O)O)C(=O)N[C@H](C(N)=O)[C@@H](C)O)C(C)C` [Example 30, N^ε28-[(4S)-4-carboxy-4-[[2-[2-[2-[[2-[2-[2-[[(4S)-4-carboxy-4-[[(4S)-4-carboxy-4-(17-carboxyheptadecanoylamino)butanoyl]amino]butanoyl]amino]ethoxy]ethoxy]acetyl]amino]ethoxy]ethoxy]acetyl]amino]butanoyl]-[Aib2,His3,Leu10,Glu15,Arg20,Glu21,Leu27,Lys28]-Glucagon amide] (H-H[Aib]HGTFTSDLSKYLESRRAREFVQWLLK([γGlu-AEEA-AEEA-γGlu-γGlu-C18 diacid])T-NH2; N-terminus assumed), the IC50 worked out at 1.4 nM.
